Tested on: HeLa cells
Assay: Exposure of dasatinib-modified particles from endocytic vesicles to cytoplasm, seen as co-localization with EGFP-ABL1 fluorescence
Assay type: cell-based
Settings: HeLa cells transfected with EGFP-ABL1 with dasatinib-particles; cells fixed by the additive, not observed in a living state
Description: In addition, ABL1 (GenBank Acc. No. NM—198291) which binds to dasatinib was used for another linker constituting a mediator.
EGFP-ABL1 expression vector was produced by a known method (Sambrook & Russell, 2001, Molecular Cloning, Cold Spring Harbor Laboratory Press). After HeLa cells were subcultured to 6,000 cells/well on a 96-well plate, the expression vector DNA was transfected into a cell as mentioned in Example 1.
The particles modified with dasatinib were introduced into the cell transfected with DNA in the following. The cultured HeLa cells were treated with the modified particles according to the following processes:
1) Streptavidin-magnetic particles were mixed with dasatinib-biotin and the mixture was allowed to be reacted with each other. As a result, the particles modified with dasatinib were prepared;
In this embodiment, Olympus fluorescence microscope, FV1000, equipped with the object lens of Uplan Apo 40×/0.85 was used to obtain transmitted images and fluorescent images in the cells.

With CCO [ethanol] the “function as a cytoplasm exposure additive (exposure of particles to cytoplasm from endocytic vesicles)” value (from here on “function”) was “exposed the particles to cytoplasm from endocytic vesicles effectively”.

In the case of CO [methanol], the “function” value is reported as “exposed the particles to cytoplasm from endocytic vesicles effectively”.

For paraformaldehyde, the “function” value was “exposed the particles to cytoplasm from endocytic vesicles effectively”.

Source: patent publication US20110223666A1, “CYTOPLASM EXPOSURE ADDITIVE AND METHOD FOR EXPOSING PARTICLES DELIVERED INTO CELL TO CYTOPLASM FROM ENDOCYTIC VESICLES IN INTACT CELL” (MEDISCOV INC., priority 2008, published 2011)
